Literature values in PubChem BioAssay AID1259409 (Chemical Carcinogenesis Research Information System (CCRIS), 2018).
Where “and” joins values, the source holds several entries; their conditions need not be identical. Identical values can stand only once.

Tested on: rodent chemically induced tumor inhibition, incidence and multiplicity
Test: CCRIS tumor inhibitor studies
Conditions: Promoter: NONE USED

COC(=O)/C(C)=C/C=C/C(C)=C\C=C\C=C(C)\C=C\C=C(C)\C=C\C1=C(C)CCCC1(C)C
tumour outcome (control, treated, inhibition, significance) (Carcinogen: BENZO[A]PYRENE, 50-32-8, Dose [Inhibitor]: 0, 4.7 MICROMOLAR/D IN 0.1 ML PEANUT OIL BEGINNING 2 WK PRIOR TO CARCINOGEN TREATMENT AND CONTINUING TO 2 WK POST CARCIN, Route [Inhibitor]: GAVAGE, Species: MOUSE, Strain/Sex: SWISS/FEMALE, Target Tissue: Type of Lesion: FORESTOMACH: TUMOR, Dose [Carcinogen]: 1 MG 2/WK IN 0.1 ML PEANUT OIL FOR 4 WK): 20/20 (100%), 4/20 (20%), 80%, p<0.001

CC(C)(C)c1ccccc1O
tumour outcome (control, treated, inhibition, significance) (Carcinogen: BENZO[A]PYRENE, 50-32-8, Dose [Inhibitor]: 0.03 MMOL/G OF DIET DAILY STARTING 7 D BEFORE AND CONTINUING THROUGH 3 D AFTER CARCINOGEN TREATMENT FOLLOWED BY OBSERVAT, Route [Inhibitor]: ORAL, Species: MOUSE, Strain/Sex: ICR/FEMALE, Target Tissue: Type of Lesion: FORESTOMACH: NEOPLASM, Dose [Carcinogen]: 1 MG IN 0.2 ML CORN OIL 2/WK FOR 4 WK): 94%, 85%, 10%, not significant and 100%, 95%, 5%, not significant

CC(=O)O[C@H]1CC(C)(C)C(=C=C/C(C)=C/C=C/C(C)=C/C=C/C=C(C)/C=C/C=C(\C)C(=O)C[C@@]23O[C@]2(C)C[C@@H](O)CC3(C)C)[C@](C)(O)C1
tumour outcome (control, treated, inhibition, significance) (Carcinogen: N-ETHYL-N'-NITRO-N-NITROSOGUANIDINE, 70-25-7, Dose [Inhibitor]: 0, 0.005% IN DRINKING WATER (DISSOLVED IN 50 MG/ML DMSO) FOR 4 WK BEGINNING POST CARCINOGEN TREATMENT FOLLOWED BY 12 WK, Route [Inhibitor]: ORAL, Species: MOUSE, Strain/Sex: C57BL/MALE, Target Tissue: Type of Lesion: DUODENUM: TUMORS, Dose [Carcinogen]: 100 MG/L IN DRINKING WATER AD LIBITUM FOR 4 WK): 14/28 (78%), 13/20 (65%), 17%, not significant
tumour outcome (control, treated, inhibition, significance) (Carcinogen: N-ETHYL-N'-NITRO-N-NITROSOGUANIDINE, 70-25-7, Dose [Inhibitor]: 0, 0.005% IN DRINKING WATER (DISSOLVED IN 50 MG/ML DMSO) FOR 16 WK BEGINNING POST CARCINOGEN TREATMENT (STUDY DURATION:, Route [Inhibitor]: ORAL, Species: MOUSE, Strain/Sex: C57BL/MALE, Target Tissue: Type of Lesion: DUODENUM: TUMORS, Dose [Carcinogen]: 100 MG/L IN DRINKING WATER AD LIBITUM FOR 4 WK): 14/21 (67%), 7/20 (35%), 48%, p<0.05 and 14/28 (78%), 6/20 (30%), 62%, p<0.005
tumour outcome (control, treated, inhibition, significance) (Carcinogen: N-ETHYL-N'-NITRO-N-NITROSOGUANIDINE, 4245-77-6, Dose [Inhibitor]: 0, 0.005% IN DRINKING WATER BEGINNING POST CARCINOGEN TREATMENT AND CONTINUING FOR 16 WK (STUDY DURATION: 20 WK), Route [Inhibitor]: ORAL, Species: MOUSE, Strain/Sex: C57BL/MALE, Target Tissue: Type of Lesion: DUODENUM: TUMOR, Dose [Carcinogen]: 100 MG/L DRINKING WATER FOR 4 WK): 14/21 (67%), 7/20 (35%), 48%, p<0.05

O=C1CCCO1
tumour outcome (control, treated, inhibition, significance) (Carcinogen: N-METHYL-N'-NITRO-N-NITROSOGUANIDINE, 70-25-7, Dose [Inhibitor]: 0, 200 MG/KG/BW SUSPENSION IN OLIVE OIL 1/2 D BEGINNING POST CARCINOGEN TREATMENT AND CONTINUING FOR DURATION OF STUDY (, Route [Inhibitor]: SUBCUTANEOUS, Species: RAT, Strain/Sex: WISTAR/MALE, Target Tissue: Type of Lesion: STOMACH: ADENOCARCINOMA, Dose [Carcinogen]: 50 UG/ML IN DRINKING WATER FOR 25 WK): 16/20 (80%), 13/20 (65%), 19%, not significant

CCC(=O)O[C@H]1CC[C@H]2[C@@H]3CCC4=CC(=O)CC[C@]4(C)[C@H]3CC[C@]12C
tumour outcome (control, treated, inhibition, significance) (Carcinogen: CADMIUM CHLORIDE, 10108-64-2, Dose [Inhibitor]: APPROXIMATELY NORMAL CIRCULATING LEVELS OF TESTOSTERONE BEGINNING 2 WK PRIOR TO CARCINOGEN TREATMENT, IMPLANTS REPLACED, Route [Inhibitor]: SUBCUTANEOUS IMPLANT, Species: RAT, Strain/Sex: F344/MALE, Target Tissue: Type of Lesion: HEMATOPOIETIC SYSTEM: LEUKEMIA, Dose [Carcinogen]: 20 UMOL 1/WK FOR 5 WK): 9/40 (23%), 10/37 (27%), -17%, not significant
tumour outcome (control, treated, inhibition, significance) (Carcinogen: CADMIUM CHLORIDE, 10108-64-2, Dose [Inhibitor]: APPROXIMATELY NORMAL CIRCULATING LEVELS OF TESTOSTERONE BEGINNING 2 WK PRIOR TO CARCINOGEN TREATMENT, IMPLANTS REPLACED, Route [Inhibitor]: SUBCUTANEOUS IMPLANT, Species: RAT, Strain/Sex: F344/MALE, Target Tissue: Type of Lesion: INJECTION SITE: SARCOMA, Dose [Carcinogen]: 20 UMOL 1/WK FOR 5 WK): 28/40 (70%), 22/37 (59%), 16%, not significant
tumour outcome (control, treated, inhibition, significance) (Carcinogen: CADMIUM CHLORIDE, 10108-64-2, Dose [Inhibitor]: APPROXIMATELY NORMAL CIRCULATING LEVELS OF TESTOSTERONE BEGINNING 2 WK PRIOR TO CARCINOGEN TREATMENT, IMPLANTS REPLACED, Route [Inhibitor]: SUBCUTANEOUS IMPLANT, Species: RAT, Strain/Sex: F344/MALE, Target Tissue: Type of Lesion: TESTES: TUMOR, Dose [Carcinogen]: 20 UMOL 1/WK FOR 5 WK): 34/40 (85%), 0/37 (0%), 100%, p<0.05
tumour outcome (control, treated, inhibition, significance) (Carcinogen: N-NITROSOBIS(2-OXOPROPYL)AMINE, 60599-38-4, Dose [Inhibitor]: 0, 40 MG PELLET INSERTED IN THE INTERSCAPULAR REGION AND REPLACED EVERY 6 WK FOR LIFE BEGINNING POST LAST CARCINOGEN DOS, Route [Inhibitor]: SUBCUTANEOUS, Species: RAT, Strain/Sex: MRC/MALE, Target Tissue: Type of Lesion: COLON: TUMOR, Dose [Carcinogen]: 10 MG/KG 1/WK FOR 20 WK): 2/26 (8%), 1/24 (4%), 50%, not calculated
tumour outcome (control, treated, inhibition, significance) (Carcinogen: N-NITROSOBIS(2-OXOPROPYL)AMINE, 60599-38-4, Dose [Inhibitor]: 0, 40 MG PELLET INSERTED IN THE INTERSCAPULAR REGION AND REPLACED EVERY 6 WK FOR LIFE BEGINNING POST LAST CARCINOGEN DOS, Route [Inhibitor]: SUBCUTANEOUS, Species: RAT, Strain/Sex: MRC/MALE, Target Tissue: Type of Lesion: RECTUM: TUMOR, Dose [Carcinogen]: 10 MG/KG 1/WK FOR 20 WK): 9/26 (35%), 14/24 (58%), -66%, not calculated
tumour outcome (control, treated, inhibition, significance) (Carcinogen: N-NITROSOBIS(2-OXOPROPYL)AMINE, 60599-38-4, Dose [Inhibitor]: 0, 40 MG PELLET INSERTED IN THE INTERSCAPULAR REGION AND REPLACED EVERY 6 WK FOR LIFE BEGINNING WITH FIRST CARCINOGEN DO, Route [Inhibitor]: SUBCUTANEOUS, Species: RAT, Strain/Sex: MRC/MALE, Target Tissue: Type of Lesion: COLON: TUMOR, Dose [Carcinogen]: 10 MG/KG 1/WK FOR 20 WK): 2/26 (8%), 0/29 (0%), 100%, not calculated
tumour outcome (control, treated, inhibition, significance) (Carcinogen: N-NITROSOBIS(2-OXOPROPYL)AMINE, 60599-38-4, Dose [Inhibitor]: 0, 40 MG PELLET INSERTED IN THE INTERSCAPULAR REGION AND REPLACED EVERY 6 WK FOR LIFE BEGINNING WITH FIRST CARCINOGEN DO, Route [Inhibitor]: SUBCUTANEOUS, Species: RAT, Strain/Sex: MRC/MALE, Target Tissue: Type of Lesion: RECTUM: TUMOR, Dose [Carcinogen]: 10 MG/KG 1/WK FOR 20 WK): 9/26 (35%), 0/29 (0%), 100%, p<0.005
tumour outcome (control, treated, inhibition, significance) (Carcinogen: N-NITROSOBIS(2-OXOPROPYL)AMINE, 60599-38-4, Dose [Inhibitor]: 0, 40 MG PELLET INSERTED IN THE INTERSCAPULAR REGION AND REPLACED EVERY 6 WK FOR LIFE BEGINNING WITH FIRST CARCINOGEN DO, Route [Inhibitor]: SUBCUTANEOUS, Species: RAT, Strain/Sex: MRC/MALE, Target Tissue: Type of Lesion: RECTUM: TUMOR, Dose [Carcinogen]: 20 MG/KG 1/D FOR 3 D): 6/13 (46%), 0/25 (0%), 100%, p<0.005

CCC(=O)Oc1ccc2c(c1)CC[C@@H]1[C@@H]2CC[C@]2(C)[C@@H](OC(=O)CC)CC[C@@H]12
tumour outcome (control, treated, inhibition, significance) (Carcinogen: 1,2-DIMETHYLHYDRAZINE, 540-73-8, Dose [Inhibitor]: 0, 0.1 ML OF A SOLUTION IN OLIVE OIL 1/WK FOR 30 WK ADMINISTERED 1 DAY PRIOR TO EACH CARCINOGEN DOSE AND CONTINUING FOR, Route [Inhibitor]: SUBCUTANEOUS, Species: MOUSE, Strain/Sex: C3H/FEMALE, Target Tissue: Type of Lesion: CLITORAL GLAND: TUMORS, Dose [Carcinogen]: 8 MG/KG BW 1/WK FOR 20 WK): 23/36 (64%), 7/37 (19%), 70%, p=0.026
tumour outcome (control, treated, inhibition, significance) (Carcinogen: 7,12-DIMETHYLBENZ[A]ANTHRACENE, 57-97-6, Dose [Inhibitor]: 0, 1 MG/100 G BW 1/WK FOR 150 D BEGINNING POST CARCINOGEN TREATMENT (STUDY DURATION: 150 D), Route [Inhibitor]: SUBCUTANEOUS, Species: RAT, Strain/Sex: WISTAR/FEMALE, Target Tissue: Type of Lesion: MAMMARY GLAND: ADENOCARCINOMA, Dose [Carcinogen]: 4 MG IN 0.1 ML OF SESAME OIL INJECTED ONCE INTO THE EXPOSED MAMMARY TISSUE OF HYPERPROLACTINEMIC RATS ON DAY 73 OF AGE): 8/11 (73%), 1/7 (14%), 81%, p<0.05
